Here are results for 10 compounds from patent publication US12421253B2 (Mirati Therapeutics, Inc., priority 2020, dated 2025).

Usually IC50 stands for the point on the concentration scale where inhibition reaches its midpoint. A lower IC50 goes with inhibition by little substance.

One test concerns the target T1, KRas^WT (Homo sapiens, UniProt P01116).
T1 construct: […]; biotin (biotinylated); purchased Accelegan Inc
In words: KRas binding assay (TR-FRET displacement of Cy5 labelled tracer).

Another test has as its target T2, KRas^G12A (Homo sapiens, UniProt P01116, G12A).
T2 construct: […]; biotin (biotinylated); purchased Accelegan Inc
The description is as above.

Another test deals with T3, KRas^G12D (Homo sapiens, UniProt P01116, G12D).
T3 construct: […]; biotin (biotinylated); purchased Accelegan Inc
Described as above.

For a further test, the target named is T4, KRas^G12R (Homo sapiens, UniProt P01116, G12R).
T4 construct: […]; biotin (biotinylated); purchased Accelegan Inc
Described as above.

Another test addresses T5, KRas^G12S (Homo sapiens, UniProt P01116, G12S).
T5 construct: […]; biotin (biotinylated); purchased Accelegan Inc
The description is as above.

Another test concerns the target T6, KRas^G12V (Homo sapiens, UniProt P01116, G12V).
T6 construct: […]; biotin (biotinylated); purchased Accelegan Inc
The description is as above.

Another test deals with KRas^G12C (Homo sapiens, UniProt P01116, G12C). In words: biochemical.
For another test, the target named is KRas^G13D (Homo sapiens, UniProt P01116, G13D). Description: biochemical.
The target in a further test is KRas^Q61H (Homo sapiens, UniProt P01116, Q61H). Description: biochemical.
Chain of KRas^Q61H (P01116 1-169 isoform P01116-2 Q61H): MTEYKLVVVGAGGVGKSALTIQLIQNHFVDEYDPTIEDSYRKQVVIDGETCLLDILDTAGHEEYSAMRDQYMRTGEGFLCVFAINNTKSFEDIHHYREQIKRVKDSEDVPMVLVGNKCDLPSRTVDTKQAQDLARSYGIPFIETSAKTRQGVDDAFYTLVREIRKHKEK

T5 sequence (P01116 1-169 isoform P01116-2 G12S): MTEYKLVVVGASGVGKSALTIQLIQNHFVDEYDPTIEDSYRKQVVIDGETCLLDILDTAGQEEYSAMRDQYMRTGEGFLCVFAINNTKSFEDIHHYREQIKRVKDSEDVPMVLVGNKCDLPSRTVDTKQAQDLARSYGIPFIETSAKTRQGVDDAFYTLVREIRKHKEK
T2 sequence (P01116 1-169 isoform P01116-2 G12A): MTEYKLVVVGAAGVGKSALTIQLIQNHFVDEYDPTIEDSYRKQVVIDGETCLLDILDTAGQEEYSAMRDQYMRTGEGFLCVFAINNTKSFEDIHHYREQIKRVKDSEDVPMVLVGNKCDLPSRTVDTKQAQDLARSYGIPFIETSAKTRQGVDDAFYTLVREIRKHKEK
T6 sequence (P01116 1-169 isoform P01116-2 G12V): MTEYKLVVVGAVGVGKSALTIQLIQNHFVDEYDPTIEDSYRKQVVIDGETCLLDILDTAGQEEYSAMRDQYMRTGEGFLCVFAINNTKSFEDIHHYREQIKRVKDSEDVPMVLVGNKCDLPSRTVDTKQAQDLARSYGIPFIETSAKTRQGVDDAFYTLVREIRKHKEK
T3 sequence (P01116 1-169 isoform P01116-2 G12D): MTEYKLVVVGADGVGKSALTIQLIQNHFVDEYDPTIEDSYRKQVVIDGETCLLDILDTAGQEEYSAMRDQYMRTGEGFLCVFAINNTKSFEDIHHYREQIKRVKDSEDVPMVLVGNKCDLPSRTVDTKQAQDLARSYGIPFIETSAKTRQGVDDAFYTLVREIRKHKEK
T1 sequence (P01116 1-169 isoform P01116-2): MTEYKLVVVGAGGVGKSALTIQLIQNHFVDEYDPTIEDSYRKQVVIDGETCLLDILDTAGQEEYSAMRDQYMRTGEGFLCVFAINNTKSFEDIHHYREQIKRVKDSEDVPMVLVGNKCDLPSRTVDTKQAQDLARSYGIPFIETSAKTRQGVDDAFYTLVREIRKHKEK
Chain of KRas^G13D (P01116 1-169 isoform P01116-2 G13D): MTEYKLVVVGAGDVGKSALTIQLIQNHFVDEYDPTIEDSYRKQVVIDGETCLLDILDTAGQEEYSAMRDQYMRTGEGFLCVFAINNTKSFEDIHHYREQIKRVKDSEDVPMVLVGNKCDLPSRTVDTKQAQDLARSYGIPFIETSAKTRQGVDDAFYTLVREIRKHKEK
Chain of KRas^G12C (P01116 1-169 isoform P01116-2 G12C): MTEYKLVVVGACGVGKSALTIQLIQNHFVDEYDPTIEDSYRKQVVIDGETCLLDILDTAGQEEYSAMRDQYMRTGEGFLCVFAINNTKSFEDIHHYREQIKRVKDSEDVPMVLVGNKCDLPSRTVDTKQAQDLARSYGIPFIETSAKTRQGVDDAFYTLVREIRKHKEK
T4 sequence (P01116 1-169 isoform P01116-2 G12R): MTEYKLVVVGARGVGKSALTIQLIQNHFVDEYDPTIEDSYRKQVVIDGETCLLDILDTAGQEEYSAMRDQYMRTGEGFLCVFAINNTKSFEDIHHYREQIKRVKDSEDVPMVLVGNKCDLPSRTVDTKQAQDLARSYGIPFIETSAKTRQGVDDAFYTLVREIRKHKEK
Experimental for KRas^G12A: (§1) The ability of a compound to bind to KRas was measured using a TR-FRET displacement assay. […] After a 60-minute incubation at room temperature, the reaction was measured using a BMG LABTECH CLARIO star Plus via TR-FRET. […] The POC values were fit to a 4-parameter IC50 equation and the IC50 value reported.
Experimental for KRas^G12C: as §1
Experimental for KRas^G12D: as §1
Experimental for KRas^G12R: as §1
Experimental for KRas^G12S: as §1
Experimental for KRas^G12V: as §1
Experimental for KRas^G13D: as §1
Experimental for KRas^Q61H: as §1
Experimental for KRas^WT: as §1

As for `CCc1cccc2cccc(N3CCc4c(nc(OCC56CCCN5CCC6)nc4N4CC(C)CC(CO)C4)C3)c12` (stereo not drawn) [Example 133, (1-(7-(8-ethylnaphthalen-1-yl)-2-((tetrahydro-1H-pyrrolizin-7a(5H)-yl)methoxy)-5,6,7,8-tetrahydropyrido[3,4-d]pyrimidin-4-yl)-5-methylpiperidin-3-yl)methanol], the IC50 at KRas^WT stood at 1340 nM; on KRas^G12A, 1020 nM; at KRas^G12D, 945 nM; at KRas^G12R, 781 nM; on KRas^G12S, 1020 nM; at KRas^G12V, 936 nM. For the same compound, the concentration for half-maximal inhibition (IC50) is 871 nM against KRas^G12C, 1500 nM on KRas^G13D and 1440 nM on KRas^Q61H.
Regarding `CCc1cccc2cccc(N3CCc4c(nc(OCC56CCCN5CCC6)nc4N4CCCC(c5ccno5)C4)C3)c12` (stereo not drawn) [Example 99, 5-(1-(7-(8-ethylnaphthalen-1-yl)-2-((tetrahydro-1H-pyrrolizin-7a(5H)-yl)methoxy)-5,6,7,8-tetrahydropyrido[3,4-d]pyrimidin-4-yl)piperidin-3-yl)isoxazole], the IC50 at KRas^WT came to 1240 nM; on KRas^G12A, 1250 nM; at KRas^G12D, 3010 nM; on KRas^G12R it was 338 nM; on KRas^G12S, 1250 nM; at KRas^G12V it was 958 nM. The IC50 came out at 1000 nM on KRas^G12C, 1560 nM at KRas^G13D and 1130 nM against KRas^Q61H.
Turning to `CCc1cccc2cccc(N3CCc4c(nc(OCC56CCCN5CCC6)nc4N4CCCC(n5cccn5)C4)C3)c12` (stereo not drawn) [Example 82, 4-(3-(1H-pyrazol-1-yl)piperidin-1-yl)-7-(8-ethylnaphthalen-1-yl)-2-((tetrahydro-1H-pyrrolizin-7a(5H)-yl)methoxy)-5,6,7,8-tetrahydropyrido[3,4-d]pyrimidine], the IC50 at KRas^WT turned out to be 712 nM; on KRas^G12A, 628 nM; on KRas^G12D, 1120 nM; at KRas^G12R, 291 nM; at KRas^G12S, 696 nM; at KRas^G12V, 958 nM. Besides, the IC50 at KRas^G12C was 475 nM; at KRas^G13D, 552 nM; against KRas^Q61H, 606 nM.
As to `CCc1cccc2cccc(N3CCc4c(nc(OCC56CCCN5CCC6)nc4N(C)CC(C)(C)O)C3)c12` [Example 113, 1-((7-(8-ethylnaphthalen-1-yl)-2-((tetrahydro-1H-pyrrolizin-7a(5H)-yl)methoxy)-5,6,7,8-tetrahydropyrido[3,4-d]pyrimidin-4-yl)(methyl)amino)-2-methylpropan-2-ol], the IC50 on KRas^WT worked out at 509 nM; at KRas^G12A it was 464 nM; at KRas^G12D, 843 nM; on KRas^G12R, 756 nM; at KRas^G12S, 601 nM; at KRas^G12V, 450 nM. Also, the IC50 on KRas^G12C came to 418 nM; at KRas^G13D, 654 nM; on KRas^Q61H, 523 nM.
`CCc1cccc2cccc(N3CCc4c(nc(OCC56CCCN5CCC6)nc4N4CCOCC(n5cncn5)C4)C3)c12` (stereo not drawn) [Example 88, 4-(7-(8-ethylnaphthalen-1-yl)-2-((tetrahydro-1H-pyrrolizin-7a(5H)-yl)methoxy)-5,6,7,8-tetrahydropyrido[3,4-d]pyrimidin-4-yl)-6-(1H-1,2,4-triazol-1-yl)-1,4-oxazepane]: the half-inhibitory concentration (IC50) on KRas^WT came to 215 nM; on KRas^G12A it was 475 nM; at KRas^G12D it was 1110 nM; at KRas^G12R, 470 nM; on KRas^G12S, 505 nM; on KRas^G12V it was 403 nM. Further, the IC50 against KRas^G12C is 482 nM; on KRas^G13D it was 176 nM; against KRas^Q61H it was 228 nM.
Consider `CCc1cccc2cccc(N3CCc4c(nc(OCC56CCCN5CCC6)nc4N4C[C@@H](C)C[C@@H](O)C4)C3)c12` [Example 111, (3R,5S)-1-(7-(8-ethylnaphthalen-1-yl)-2-((tetrahydro-1H-pyrrolizin-7a(5H)-yl)methoxy)-5,6,7,8-tetrahydropyrido[3,4-d]pyrimidin-4-yl)-5-methylpiperidin-3-ol], for which the IC50 at KRas^WT came out at 411 nM; at KRas^G12A, 440 nM; at KRas^G12D, 602 nM; on KRas^G12R it was 546 nM; on KRas^G12S it was 486 nM; at KRas^G12V, 404 nM. The concentration for half-maximal inhibition (IC50) at KRas^G12C turned out to be 417 nM; against KRas^G13D it was 544 nM; at KRas^Q61H it was 513 nM.
With `Cc1cccc2cccc(N3CCc4c(nc(OCC56CCCN5CCC6)nc4N4CC5C(=O)NC(=O)C5C4)C3)c12` (stereo not drawn) [Example 80, 5-(2-((hexahydro-1H-pyrrolizin-7a-yl)methoxy)-7-(8-methylnaphthalen-1-yl)-5,6,7,8-tetrahydropyrido[3,4-d]pyrimidin-4-yl)tetrahydropyrrolo[3,4-c]pyrrole-1,3(2H,3aH)-dione], the IC50 on KRas^WT was found to be 200 nM; at KRas^G12A, 428 nM; on KRas^G12D, 121 nM; at KRas^G12R, 285 nM; on KRas^G12S, 68 nM; on KRas^G12V it was 130 nM. Besides, the values for the IC50 against KRas^G12C, on KRas^G13D and at KRas^Q61H were 211 nM, 213 nM and 260 nM, respectively.
Regarding `CCc1cccc2cccc(N3CCc4c(nc(OCC56CCCN5CCC6)nc4NC4CCc5ncsc5C4)C3)c12` (stereo not drawn) [Example 168, N-(7-(8-ethylnaphthalen-1-yl)-2-((tetrahydro-1H-pyrrolizin-7a(5H)-yl)methoxy)-5,6,7,8-tetrahydropyrido[3,4-d]pyrimidin-4-yl)-4,5,6,7-tetrahydrobenzo[d]thiazol-6-amine], the concentration for half-maximal inhibition (IC50) on KRas^WT was 15000 nM; on KRas^G12A, 11100 nM; at KRas^G12D, 26400 nM; at KRas^G12R, 4950 nM; at KRas^G12S, 9630 nM; at KRas^G12V it was 7120 nM. Also, the IC50 is 5390 nM against KRas^G12C, 21900 nM at KRas^G13D and 14600 nM on KRas^Q61H.
Take `CCc1cccc2cccc(N3CCc4c(nc(OCC56CCCN5CCC6)nc4N4CCCC(c5cc(=O)[nH][nH]5)C4)C3)c12` (stereo not drawn) [Example 87, 5-(1-(7-(8-ethylnaphthalen-1-yl)-2-((tetrahydro-1H-pyrrolizin-7a(5H)-yl)methoxy)-5,6,7,8-tetrahydropyrido[3,4-d]pyrimidin-4-yl)piperidin-3-yl)-1,2-dihydro-3H-pyrazol-3-one]: the IC50 at KRas^WT came to 1010 nM; on KRas^G12A, 1140 nM; on KRas^G12D it was 4880 nM; on KRas^G12R, 165 nM; at KRas^G12S, 1150 nM; at KRas^G12V, 1870 nM. The IC50 against KRas^G12C was found to be 470 nM; against KRas^G13D, 1470 nM; at KRas^Q61H it was 844 nM.
With `CCc1cccc2cccc(N3CCc4c(nc(OCC56CCCN5CCC6)nc4N4CCCC(c5nnc(CO)n5C)C4)C3)c12` (stereo not drawn) [Example 166, (5-(1-(7-(8-ethylnaphthalen-1-yl)-2-((tetrahydro-1H-pyrrolizin-7a(5H)-yl)methoxy)-5,6,7,8-tetrahydropyrido[3,4-d]pyrimidin-4-yl)piperidin-3-yl)-4-methyl-4H-1,2,4-triazol-3-yl)methanol], the IC50 at KRas^WT is 4810 nM; at KRas^G12A, 5510 nM; on KRas^G12D, 9850 nM; on KRas^G12R it was 4650 nM; at KRas^G12S, 5130 nM; at KRas^G12V, 7320 nM. For the same compound, the figures for the half-inhibitory concentration (IC50) on KRas^G12C, on KRas^G13D and against KRas^Q61H were 4150 nM, 4800 nM and 4580 nM, respectively.
